Reference: publication PMC7140427, “A Unique GSK-3β inhibitor B10 Has a Direct Effect on Aβ, Targets Tau and Metal Dyshomeostasis, and Promotes Neuronal Neurite Outgrowth” (Cells, 2020)

Molecular target: T1, GSK-3β (Homo sapiens, UniProt P49841)
T1 construct: gene GSK3B
Experiment: caliper mobility shift kinase assay with peptide FAM-P15 and ATP
Assay type: biochemical

T1 sequence (P49841 whole entry): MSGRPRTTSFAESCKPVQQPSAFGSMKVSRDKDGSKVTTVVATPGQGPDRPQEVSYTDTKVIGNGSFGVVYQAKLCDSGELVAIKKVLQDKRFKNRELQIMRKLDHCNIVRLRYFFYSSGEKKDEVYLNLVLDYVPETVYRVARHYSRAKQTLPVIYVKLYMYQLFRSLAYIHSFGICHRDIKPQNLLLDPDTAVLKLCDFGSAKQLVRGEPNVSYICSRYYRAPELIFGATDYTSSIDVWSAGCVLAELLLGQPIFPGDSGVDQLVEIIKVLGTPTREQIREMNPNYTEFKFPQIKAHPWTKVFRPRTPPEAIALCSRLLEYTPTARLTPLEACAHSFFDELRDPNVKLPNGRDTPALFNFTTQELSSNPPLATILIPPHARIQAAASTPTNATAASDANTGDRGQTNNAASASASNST

Oc1cc(-c2c[nH]c3ncc(-c4ccc(CNc5ccncc5)cc4)cc23)cc2cccnc12 [B10, 6-(5-(4-((pyridin-4-ylamino)methyl)phenyl)-1H-pyrrolo[2,3-b]pyridin-3-yl)quinolin-8-ol]
IC50: 0.066 ± 0.0025 µM
